Measured values taken from patent US5766896A, “Method of producing iodine by use of a copper containing oxidase enzyme” (Novo Nordisk Biotech Inc., priority 1994, dated 1998).
Where two headings read alike, the source gives them in different places.

Tests used:
[1] = biological target: T1, recombinant Myceliophthora thermophila laccase (r-MtL) (Thermothelomyces thermophilus, UniProt G2QG31); test: r-MtL-catalyzed ABTS oxidation; type: biochemical
T1 sequence (G2QG31 48-602): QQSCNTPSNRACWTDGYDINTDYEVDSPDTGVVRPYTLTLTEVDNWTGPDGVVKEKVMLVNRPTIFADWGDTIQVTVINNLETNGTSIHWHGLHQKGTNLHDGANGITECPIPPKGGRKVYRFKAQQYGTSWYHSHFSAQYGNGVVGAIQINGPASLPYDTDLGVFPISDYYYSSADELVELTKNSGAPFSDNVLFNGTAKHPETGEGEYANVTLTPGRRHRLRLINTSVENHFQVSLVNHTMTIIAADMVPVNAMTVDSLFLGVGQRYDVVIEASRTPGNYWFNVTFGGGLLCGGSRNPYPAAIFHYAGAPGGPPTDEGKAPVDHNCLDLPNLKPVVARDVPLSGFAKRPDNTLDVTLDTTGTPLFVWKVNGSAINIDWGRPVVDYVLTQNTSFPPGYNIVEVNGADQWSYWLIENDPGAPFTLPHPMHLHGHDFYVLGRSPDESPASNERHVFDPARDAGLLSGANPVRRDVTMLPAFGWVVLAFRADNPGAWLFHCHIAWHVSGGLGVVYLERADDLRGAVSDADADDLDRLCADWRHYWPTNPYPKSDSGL
Method: (§1) Enzymatic assays for determining oxidation of I^- are conducted in B & R buffer containing from 1-20 nM MtL (subunit concentration) and 10 to 200 mM Nal at 20° C. for 5-10 minutes. The extinction coefficient of 26 mM^-1 cm^-1 is used to calculate rate. Oxidation of I^- is spectrally monitored at 340 or 353 nm and the spectrum of the oxidation product is found identical to that of I3 -(Hosoya, Biochem. (Tokyo) 53: 381, 1963). Kinetic parameters are extracted by a non-linear regression fitting (Prism, GraphPad) of rate and concentration data to the equation of rate=Vmax *[substrate]/Km +[substrate].

tyrosinase (mushroom) [2] = details: pH 2.7
Description: Chemicals used as buffers and substrates are commercial products of at least reagent grade. Ascorbate oxidase (Cucurbita species), ceruloplasmin (porcine plasma), bilirubin oxidase (Myrothecium verrucaria) and tyrosinase (mushroom) are purchased from Sigma and used as received. The contents of the enzymes in lyophilized powder or solution are confirmed by uv-visible absorption and published extinction coefficients. The stated activity of ascorbate oxidase is confirmed with ascorbic acid.
The extinction coefficient of 36 mM^-1 cm^-1 is used to calculate the rate. Spectroscopic assays are conducted on either a spectrophotometer (Shimadzu UV160) or a microplate reader (Molecular Devices). Britton & Robinson (B & R) buffers are prepared according to a standard protocol (Quelle, Biochemisches Taschenbuch, H. M. Raven, II. Teil, S.93 u. 102, 1964).

[3] = biological target: T2, bilirubin oxidase (Myrothecium verrucaria) (Albifimbria verrucaria, UniProt Q12737); test: bilirubin oxidase-catalyzed I^- oxidation; type: biochemical; details: optimal pH of 4.1
T2 construct: purchased Sigma
T2 sequence (Q12737 39-572): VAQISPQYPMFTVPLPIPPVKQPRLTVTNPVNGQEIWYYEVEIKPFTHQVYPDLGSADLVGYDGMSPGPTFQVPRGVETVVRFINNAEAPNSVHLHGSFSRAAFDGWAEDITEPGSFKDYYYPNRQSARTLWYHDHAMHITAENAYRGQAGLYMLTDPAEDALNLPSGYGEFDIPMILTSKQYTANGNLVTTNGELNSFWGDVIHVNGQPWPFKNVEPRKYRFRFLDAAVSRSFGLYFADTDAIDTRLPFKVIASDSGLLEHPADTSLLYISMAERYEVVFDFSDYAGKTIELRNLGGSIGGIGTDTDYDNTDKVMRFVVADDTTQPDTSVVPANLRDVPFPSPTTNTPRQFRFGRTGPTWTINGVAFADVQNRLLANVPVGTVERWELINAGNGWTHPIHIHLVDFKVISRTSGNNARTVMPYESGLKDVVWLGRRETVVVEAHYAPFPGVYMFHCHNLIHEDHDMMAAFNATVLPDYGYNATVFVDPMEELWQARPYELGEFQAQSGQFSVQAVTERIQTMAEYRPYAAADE
Method: as §1
(§2) Ascorbate oxidase, ceruloplasmin, bilirubin oxidase, and tyrosinase at concentrations up to μM level are also tested under similar conditions for I^- oxidation catalysis.

tyrosinase (mushroom) [4] = test: tyrosinase-catalyzed I^- oxidation; type: biochemical; details: optimal pH of 2.7
Method: as §1, §2

[5] = biological target: T1, recombinant Myceliophthora thermophila laccase (r-MtL); test: r-MtL-catalyzed I^- oxidation; type: biochemical; details: pH 3.4
Method: as §1

Myceliophthora laccase = Myceliophthora laccase (Thermothelomyces thermophilus, UniProt G2QG31); test: chloride inhibition of Myceliophthora laccase; type: biochemical; details: read-out: inhibition constant (chloride)

For `CCn1c(=NN=c2sc3cc(S(=O)(=O)O)ccc3n2CC)sc2cc(S(=O)(=O)O)ccc21` [ABTS, 2,2'-azinobis-(3-ethylbenzthiazoline-6-sulfonic acid)], the “Km of ABTS, fold smaller in comparison with I^-” value [1] was ~ 10^3 fold, the “Vmax of ABTS, fold larger in comparison with I^-” value [1] was ~ 10^3 fold and the “Vmax (ABTS oxidation)” value (tyrosinase (mushroom) [2]) was 3.1±0.1 turnover per minute. The Km (tyrosinase (mushroom) [2]; read-out: Km (ABTS)) was 180 ± 10 µM.

In the case of `I` [I^-, iodide], the “Vmax (I^- oxidation)” value [3] is reported as 1.7±0.1 turnover per minute, the Km (tyrosinase (mushroom) [4]) is reported as about 100 mM and the “Vmax (I^- oxidation)” value (tyrosinase (mushroom) [4]) is reported as “ca. 0.1 turnover per minute”. For the same compound, the “Vmax (I^- oxidation)” value [5] was 2.7±0.2 turnover per minute.

Work on `Cl` [chloride] yielded a Ki (Myceliophthora laccase) of about 70 mM.
